According to BigSolDB 2.1:

CC(=O)OC(c1ccccc1)C(Cl)(Cl)Cl (stereo unspecified)
solubility (mole fraction)
Settings	in acetic acid	in acetone	in acetonitrile	in ethanol	in ethyl acetate	in ethyl formate	in isopropanol	in methanol	in n-propanol
288.15 K	0.0201	0.0931	0.036	0.00865	0.117	0.0868	0.00712	0.00659	0.0105
293.15 K	0.0271	0.111	0.0408	0.0108	0.137	0.105	0.00929	0.00757	0.0132
298.15 K	0.0379	0.133	0.0579	0.0134	0.159	0.132	0.0129	0.00931	0.0164
303.15 K	0.0482	0.158	0.0719	0.0171	0.19	0.165	0.0169	0.0121	0.0216
308.15 K	0.0605	0.193	0.0989	0.0217	0.218	0.198	0.0211	0.0153	0.0287
313.15 K	0.0767	0.232	0.13	0.029	0.251	0.236	0.0279	0.02	0.0375
318.15 K	0.1	0.273	0.168	0.0406	0.287	0.274	0.0382	0.0264	0.0496
323.15 K	0.127	0.32	0.218	0.0555	0.333	0.314	0.0538	0.0342	0.0667
328.15 K	0.167	0.377	0.286	0.0735	0.38	0.363	0.0742	0.0447	0.0905
